# Test results as given in US9789096B2, “Methods and compositions for selective and targeted cancer therapy” (Board of Regents of the University of Texas System, priority 2013, dated 2017).
# Read-outs that look alike come from different tables or passages of the source.
# Assays:
# HCC4017 [1] = test: Cell viability dose-response, HCC4017; type: cell-based, human; conditions: Homo sapiens
# Method in brief: (§1)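 Steps: seed cells to 15% confluence in RPMI-1640 supplemented with 5% fetal bovine serum and 2 mM glutamine; add compound across a concentration range; incubate 4 days; measure total ATP with CellTiter-Glo. IC50 is derived from the curve.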
# H2009 = test: Cell viability dose-response, H2009; type: cell-based, human; conditions: Homo sapiens, NCI-H2009
# Method in brief: as §1
# H2073 = test: Cell viability dose-response, H2073; type: cell-based, human; conditions: Homo sapiens
# Method in brief: as §1
# HBEC30KT = test: Cell viability (ATP, Cell Titer Glo, 4 days), HBEC30KT; type: cell-based, human; conditions: Homo sapiens
# H1155 = test: Cell viability dose-response, H1155; type: cell-based; conditions: Homo sapiens, NCI-H1155
# Method in brief: as §1
# HCC95 = test: Cell viability dose-response, HCC95; type: cell-based; conditions: Homo sapiens
# Method in brief: as §1
# H1993 = test: Cell viability dose-response, H1993; type: cell-based; conditions: Homo sapiens, NCI-H1993
# Method in brief: as §1
# H1819 = test: Cell viability dose-response, H1819; type: cell-based, human; conditions: Homo sapiens
# Method in brief: (§2)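 Cells plated at 15% confluence in RPMI-1640 with 5% FBS and 2 mM L-glutamine, treated with compound in a 12-point, 3-fold dilution series from 50 micromolar, in duplicate. ATP measured by Cell Titer Glo after 4 days; IC50 taken from the dose-response curve.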
# HCC44 = test: Cell viability dose-response, HCC44; type: cell-based, human; conditions: Homo sapiens
# Method in brief: as §1
# HCC366 = test: Cell viability dose-response, HCC366; type: cell-based; conditions: Homo sapiens, 12-point dose-response starting at 50 micromolar, 3-fold increments, in duplicate, read-out: toxicity data, HCC366
# Method in brief: as §1
# H460 = test: Cell viability dose-response, H460; type: cell-based; conditions: Homo sapiens, NCI-H460
# Method in brief: as §1
# H2122 cells = test: Metabolism by sensitive cells (HPLC/MS/MS); type: in vitro ADME, human
# Protocol: (§3) FIGS. 9A-9D. Selective toxins selectively cross-link to SCD1 in sensitive cells and are selectively metabolized in sensitive cells. FIG. 9A. 12 NSCLC cell lines were incubated with SW208108 and processed as described in FIG. 7. […] FIG. 9B. […] FIG. 9C. […] Demethylation is the anticipated mode of metabolism. FIG. 9D. A representative benzothiazole is demethylated by sensitive cell lines. […] Values in FIGS. 9C and 9D were obtained by tandem HPLC/MS/MS.
# (§4) In this context, 12 different NSCLC cell lines were treated with SW208108, lysed and clicked to a dye as previously described. […] To understand how SW208108 could selectively cross-link to SCD1 within some cell lines that expressed the enzyme but not other cell lines that expressed the same enzyme, we investigated the stability of a representative oxalamide in the presence of a sensitive and insensitive cell line. […] Similarly, a representative benzothiazole was metabolized by H2122 cells through, at least in part, the loss of the O-methyl group (FIG. 9D).
# HCC4017 [2] = test: Metabolism by insensitive cells (HPLC/MS/MS); type: in vitro ADME, human
# Protocol: as §3, §4
# H1395 = test: Cell viability dose-response, H1395; type: cell-based; conditions: Homo sapiens, NCI-H1395
# Method in brief: as §1
# H2122 = test: Cell viability dose-response, H2122; type: cell-based, human; conditions: Homo sapiens
# Method in brief: as §2
# H2122 xenografts = test: In vivo efficacy, H2122 xenografts in NOD/SCID mice; parameters: species or system mouse; conditions: 25 mg/kg IP twice daily
# Protocol: (§5) FIG. 6C. […] NOD/SCID mice were injected with either H2122 (sensitive) or H1155 (insensitive) cells subcutaneously on day 0. When tumors reached 200 cubic mm, treatment with SW203668 (listed as A2) or vehicle was initiated (as indicated by the arrow) with twice daily doses of 25 mg/kg, IP. Tumor size was measured every 3 days for the duration of the study. Data are plotted as mean±SEM; n=12 for each group.
# H1155 xenografts = test: In vivo efficacy, H1155 xenografts in NOD/SCID mice; parameters: species or system mouse; conditions: 25 mg/kg IP twice daily
# Protocol: as §5
# [3] = ADME for xenograft studies; type: in vivo
# HopS62 = test: Cell viability dose-response, HopS62; type: cell-based; conditions: Homo sapiens; Table 4; read-out: IC50 (uM) vs indicated non-small cell lung cancer cell line HopS62
# Protocol: (§6) FIG. 6A. […] Cell viability is plotted vs. compound concentration. Compound was added to cells plated at 15% confluence in 96-well plates in RPMI-1640 media supplemented with 5% Fetal Bovine Serum and 2 mM L-Glutamine. After 4 days of incubation, ATP levels were measured using Cell Titer Glo (Promega). Data are presented as the average of 2 replicates ±SEM.
# Selectivity may be measured by the half maximal inhibitory concentration (IC50), which, as used herein, is a measure of the effectiveness of a compound in killing cells. This quantitative measure indicates how much of a particular compound is needed to kill a particular cell population by half (e.g., as indicated by the amount of ATP). […] The IC50 can be determined by constructing a dose-response curve. The lower the IC50, the higher the potency, and the greater the difference between IC50 values for different cell lines (e.g., sensitive lines vs. insensitive lines, and sensitive lines vs. normal lines) the greater the selectivity.
# With this information, we synthesized and tested a series of small molecules derived in conception from the oxalamide and chromone scaffold including N-acyl ureas, as shown in Tables 6-8. Each compound was tested in a 12-point dose-response study starting at 50 micromolar and decreasing in 3-fold increments to sub-nanomolar concentrations, in duplicate. […]
# GSK3beta = molecular target: T1, GSK3beta (Homo sapiens, UniProt P49841); test: Kinase inhibition assay (EMD Millipore), GSK3beta; type: biochemical; conditions: 100 nM
# T1 construct: purchased EMD Millipore
# T1 sequence (P49841 whole entry): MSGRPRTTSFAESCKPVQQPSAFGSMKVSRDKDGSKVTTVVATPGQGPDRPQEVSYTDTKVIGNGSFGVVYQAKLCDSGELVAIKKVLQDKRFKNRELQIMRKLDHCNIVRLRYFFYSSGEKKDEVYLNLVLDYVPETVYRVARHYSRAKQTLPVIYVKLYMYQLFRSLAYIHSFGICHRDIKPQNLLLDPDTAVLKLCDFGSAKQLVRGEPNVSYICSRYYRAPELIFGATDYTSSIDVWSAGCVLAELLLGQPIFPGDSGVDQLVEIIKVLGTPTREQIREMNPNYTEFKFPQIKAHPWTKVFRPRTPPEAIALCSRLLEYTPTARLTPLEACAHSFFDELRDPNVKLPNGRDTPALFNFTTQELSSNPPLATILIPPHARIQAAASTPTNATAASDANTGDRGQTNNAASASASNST
# Protocol: (§7) Specifically, kinase inhibition assays were performed at EMD Millipore at 1, 10 and 100 nM SW202857 and individually optimized concentrations of ATP. […] Listed kinases are the human enzyme unless indicated: mouse (m), rat (r), yeast (y).
# [4] = system: 3 human bronchial epithelial (HBEC) cell lines; test: Vitality of human bronchial epithelial (HBEC) cell lines; type: cell-based; conditions: at 10 μM
# Protocol: (§8) In addition, N-acyl benzothiazoles was also discovered, such as 4-amino-N-(6-methoxybenzo[d]thiazol-2-yl)benzamide (ATB). We compared the proliferation of 12 lung adenocarcinoma cell lines and three HBEC lines after the addition of ATB.
# (§9) We subsequently synthesized various derivatives that are both selective and potent (Tables 1 and 2). One leading candidate is a benzothiazole, SW202857, that inhibits proliferation in three of 12 adenocarcinoma cell lines at concentrations less than 10 nM.
# [5] = system: 12 lung adenocarcinoma cell lines; test: Proliferation of the panel of 12 lung adenocarcinoma cell lines; type: cell-based, human
# Protocol: as §6
# To discover selective agents, twelve cell lines of diverse genotype were selected for analysis. 108 lung cancer cell lines were initially clustered into six groups based on mRNA expression of genes that underwent frequent copy number variation. Two cell lines were chosen from each group for high throughput chemical screening. All 12 of the chosen cell lines were derived from lung adenocarcinomas, eliminating both lineage and histology as confounders. None of the cell lines chosen for screening harbored EGFR mutations or ALK rearrangements, so that the final set represented a collection of diverse lung adenocarcinoma genotypes for which there are no targeted therapy.
# The proliferative impact of each compound in the library was assayed by analyzing total ATP four days after administration of 2.5 μM in a single well. This first pass yielded 15,843 toxins defined as a compound where ATP levels were […] three standard deviations below the mean for at least one cell line. For each of these putative toxins, the average effect on proliferation was retested on each cancer cell line and a non-cancerous immortalized HBEC line (control), yielding a confirmation dataset.
# as §8, §9
# [6] = system: about 300 protein kinase enzymes; test: Kinase inhibition assays (EMD Millipore); type: biochemical, human
# Protocol: as §7
# [7] = Stability in mouse liver S9 fractions; type: in vitro ADME
# [8] = NCI-H2122, Tables 3 and 4, read-out: IC50 (uM) vs indicated non-small cell lung cancer cell line H2122
# [9] = HCC44, Tables 3 and 4, read-out: IC50 (uM) vs indicated non-small cell lung cancer cell line HCC44
# [10] = NCI-H2122, Table 9, competitor, read-out: IC50 to H2122 cells
smiles,measurement,setting,value
COc1ccc(CCNC(=O)C(=O)Nc2cccc(Cl)c2)cc1 [SW027950],IC50,"HCC4017 [1]; HCC4017, 12-point dose-response starting at 50 micromolar, 3-fold increments, in duplicate, read-out: toxicity data, HCC4017",≥ 50 µM
same,IC50,"H2009; 12-point dose-response starting at 50 micromolar, 3-fold increments, in duplicate, read-out: toxicity data, H2009",20.3 µM
same,IC50,"H2073; NCI-H2073, 12-point dose-response starting at 50 micromolar, 3-fold increments, in duplicate, read-out: toxicity data, H2073",1.4 µM
same,IC50,"HBEC30KT; 12-point dose-response starting at 50 micromolar, 3-fold increments, in duplicate, read-out: toxicity data, HBEC30KT",34 µM
same,IC50,"H1155; 12-point dose-response starting at 50 micromolar, 3-fold increments, in duplicate, read-out: toxicity data, H1155",50 µM
same,IC50,"HCC95; 12-point dose-response starting at 50 micromolar, 3-fold increments, in duplicate, read-out: toxicity data, HCC95",0.35 µM
same,IC50,"H1993; 12-point dose-response starting at 50 micromolar, 3-fold increments, in duplicate, read-out: toxicity data, H1993",50 µM
same,IC50,"H1819; NCI-H1819, 12-point dose-response starting at 50 micromolar, 3-fold increments, in duplicate, read-out: toxicity data, H1819",≥ 50 µM
same,IC50,"HCC44; HCC44, 12-point dose-response starting at 50 micromolar, 3-fold increments, in duplicate, read-out: toxicity data, HCC44",34 µM
same,IC50,HCC366,50 µM
same,IC50,"H460; 12-point dose-response starting at 50 micromolar, 3-fold increments, in duplicate, read-out: toxicity data, H460",3.9 µM
same,metabolism by sensitive H2122 cells,H2122 cells,metabolized
same,stability in the presence of an insensitive cell line,HCC4017 [2],completely stable
same,IC50,"H1395; 12-point dose-response starting at 50 micromolar, 3-fold increments, in duplicate, read-out: toxicity data, H1395",50 µM
same,IC50,"H2122; NCI-H2122, 12-point dose-response starting at 50 micromolar, 3-fold increments, in duplicate, read-out: toxicity data, H2122",0.35 µM
COc1ccc2nc(NC(=O)c3ccc(C(N)c4ccccc4)cc3)sc2c1 (stereo not drawn) [SW203668],tumor growth inhibition in H2122 xenografts,H2122 xenografts,selective toxicity
same,tumor growth inhibition in H1155 xenografts,H1155 xenografts,but not H1155 xenografts
same,"absorption, distribution, metabolism, and excretion (ADME)",[3],"appropriate absorption, distribution, metabolism, and excretion"
same,IC50,H2122; [8],0.035 µM
O=C(Nc1nc2c(s1)CCC2)c1ccc(C(=O)c2ccccc2)cc1 [SW208666-1],IC50,HCC44; [9],3.52 µM
same,IC50,H2122; [8],0.26 µM
same,IC50,HopS62,0.09 µM
"COc1ccc2nc(NC(=O)c3ccc(C(=O)c4ccccc4)cc3)sc2c1 [SW202857-1, 4-benzoyl-N-(6-methoxybenzo[d]thiazol-2-yl)benzamide]",inhibition at 0.1 µM,GSK3beta,21%
same,IC50,"HCC4017 [1]; HCC4017, Tables 3 and 4, read-out: IC50 (uM) vs indicated non-small cell lung cancer cell line HCC4017",32.6 µM
same,vitality of 3 human bronchial epithelial (HBEC) cell lines,[4],nor does it affect the vitality
same,IC50,"H2009; Tables 3 and 4, read-out: IC50 (uM) vs indicated non-small cell lung cancer cell line H2009",3.16 µM
same,IC50,"H2073; NCI-H2073, Tables 3 and 4, read-out: IC50 (uM) vs indicated non-small cell lung cancer cell line H2073",0.0185 µM
same,IC50,"HBEC30KT; Tables 3 and 4, read-out: HBEC30KT IC50",22.8 µM
same,IC50,"H1155; Tables 3 and 4, read-out: IC50 (uM) vs indicated non-small cell lung cancer cell line H1155",22.3 µM
same,toxic concentration against four sensitive cell lines,[5]; four sensitive cell lines,less than 50 nM
same,concentration that inhibits proliferation in three of 12 adenocarcinoma cell lines,[5]; three sensitive lines,less than 10 nM
same,toxic effect on the other 9 adenocarcinoma cell lines,[5]; up to 10 μM,no toxic effect
same,IC50,"HCC95; Tables 3 and 4, read-out: IC50 (uM) vs indicated non-small cell lung cancer cell line HCC95",10.8 µM
same,inhibition of about 300 protein kinase enzymes in vitro,[6]; 0.10 μM,failed to inhibit
same,"inhibition, all other kinases",[6]; highest concentration (100 nM),≤ 15%
same,IC50,"H1993; Tables 3 and 4, read-out: IC50 (uM) vs indicated non-small cell lung cancer cell line H1993",21.3 µM
same,IC50,"H1819; NCI-H1819, Tables 3 and 4, read-out: IC50 (uM) vs indicated non-small cell lung cancer cell line H1819",42.7 µM
same,IC50,HCC44; [9],0.0236 µM
same,IC50,"H460; Tables 3 and 4, read-out: IC50 (uM) vs indicated non-small cell lung cancer cell line H460",0.046 µM
same,metabolism by sensitive H2122 cells,H2122 cells,demethylated
same,stability in the presence of mouse liver S9 fractions,[7],chemically stable
same,IC50,"H1395; Tables 3 and 4, read-out: IC50 (uM) vs indicated non-small cell lung cancer cell line H1395",31.8 µM
same,IC50,H2122; [10],0.00923 µM
same,IC50,H2122; [8],0.00839 µM
O=C(Nc1nc2ccccc2o1)c1ccc(C(=O)c2ccccc2)cc1 [SW208665-1],IC50,HCC44; [9],2.14 µM
same,IC50,H2122; [10],0.8 µM
same,IC50,H2122; [8],42.7 µM
same,IC50,HopS62,1.93 µM
